The nature of series [1]: in vivo. To be noted: male, Sprague-Dawley, rat, oral.
Description: Standard methods of tissue extraction were used. […] Brain homogenate or plasma was then extracted with two volumes of acetonitrile and clarified by centrifugation at 12,000g for 20 min. […] Brain and plasma concentration and ratio (brain/plasma) were calculated for each compound.
The test system of series [2] is conditioned avoidance responding in male Wistar rats. As to the kind of experiment: Conditioned avoidance response (CAR). The class given is in vivo, rat. How it is done:
The drug was administered, per os (po), by gavage to rats in a volume of 2 ml/kg body weight. Oral dosing solutions were prepared fresh daily. […] The pH of the dosing solution was adjusted to ~pH 5.5 by dropwise addition of 0.1 N NaOH in saline and volume adjusted by addition of saline in preparation for intraperitoneal (ip) dosing. […] Control treatments were always the vehicle solutions of the corresponding drugs.
Avoidance behavior, escape behavior, escape failures, and inter-trial crosses were recorded, as described here: (1) avoidance (response to CS within 10 s); (2) escape (response to CS + UCS); and (3) escape failure (if the rat was unable to respond to the shock by moving into the opposite compartment within 50 s, the trial was terminated). The inter-trial interval (end of trial to start of new trial) varied randomly between 20 and 40 s. Rats were trained for five consecutive days and adapted to the shuttle box 5 min before each training session. Training sessions consisted of about 20 trials, randomly distributed over 15 min. Only rats that performed at least 90 % avoidance on the last day of training were included in the experiments. All subsequent test sessions were preceded by a pre-test to verify continued performance in the paradigm. Pre-tests and test sessions consisted of approximately ten trials, each randomly distributed over a 7.5-min period. […] Experimental days were always separated by at least two non-experimental days. Experimental tests were separated by at least 2 days to insure drug washout.
Results from the conditioned avoidance responding (CAR) protocol were analyzed using non-parametric procedures.

For `Cc1nc2n(c(=O)c1CCN1CCC(c3noc4cc(F)ccc34)CC1)CCCC2O` (centres unmarked) [Paliperidone, paliperidone], the concentration at 1 h in series [1] (brain) turned out to be 15 ± 5 ng/mL; in series [1] (plasma), 197 ± 91 ng/mL; in series [1] (plasma, plasma concentration, risperidone 2 mg/kg po plus vehicle, 1 h, ± SD, n = 3), 162 ± 70 ng/mL.

Regarding `Cc1nc2n(c(=O)c1CCN1CCC(c3noc4cc(F)ccc34)CC1)CCCC2` [Risperidone, reference compound], the “effect on percent avoidances” value in series [2] (0.2 mg/kg i.p., sub-threshold dose) is on record as “no effect”. In series [2] (0.8 mg/kg i.p., effective dose), the “effect on avoidance behaviors” value is “significant inhibition”.

Values taken from article PMC4980415 (Psychopharmacology, 2016).
